Results taken from the supplement of paper PMC10307832.

Key:
Test in all cases: relative viability (nuclei count vs DMSO), 5 days (fraction); higher = more cells survive
NVP-TAE684 + Pemetrexed = compound: COc1cc(N2CCC(N3CCN(C)CC3)CC2)ccc1Nc1ncc(Cl)c(Nc2ccccc2S(=O)(=O)C(C)C)n1 [NVP-TAE684] + Nc1nc2[nH]cc(CCc3ccc(C(=O)N[C@@H](CCC(=O)O)C(=O)O)cc3)c2c(=O)[nH]1 [Pemetrexed] (partner 0.2 µM)
Procedure, shortened: (§1)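 Values are medians from duplicate plates. Each reflects relative viability, defined as the nuclei count of treated wells over that of vehicle wells. Lung cancer cell lines in 1536-well plates were pin-tool dosed one day after seeding with one drug alone or with a fixed anchor-drug dose plus five library-drug doses (not always all listed) in √10 steps, then fixed, stained and imaged at 4× after 5 days.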

Vandetanib + Vorinostat = compound: COc1cc2/c(=N/c3ccc(Br)cc3F)nc[nH]c2cc1OCC1CCN(C)CC1 [Vandetanib] + O=C(CCCCCCC(=O)Nc1ccccc1)NO [Vorinostat] (partner 1 µM)
Procedure, shortened: as §1

[1] = compound: C1=CC=C2C(=C1)N=C(S2)C(C#N)C3=NC(=NC=C3)NCCC4=CN=CC=C4
Procedure, shortened: (§2)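 Acceptance criteria were a control CV below 25% and at least one doubling per plate. Lung cancer cell lines in 1536-well plates got five library-drug doses (not always all listed) √10 apart by pinning and were left 5 days with no medium change. Viability divides treated-well nuclei by vehicle-well nuclei and is the median across plates. Nuclei were counted by MetaXpress from 4× Hoechst images.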

CUDC-101 = compound: C#Cc1cccc(Nc2ncnc3cc(OC)c(OCCCCCCC(=O)NO)cc23)c1 [CUDC-101]
Procedure, shortened: as §2

## NCI-H2405
NVP-TAE684 + Pemetrexed; first compound 0.2 µM
  relative viability: 1.17
NVP-TAE684 + Pemetrexed; first compound 0.6325 µM
  relative viability: 0.901
NVP-TAE684 + Pemetrexed; first compound 2 µM
  relative viability: 0.567
Vandetanib + Vorinostat; first compound 0.02 µM
  relative viability: 1.02
Vandetanib + Vorinostat; first compound 0.06325 µM
  relative viability: 0.885
Vandetanib + Vorinostat; first compound 0.2 µM
  relative viability: 0.97
Vandetanib + Vorinostat; first compound 0.6325 µM
  relative viability: 1.14
Vandetanib + Vorinostat; first compound 2 µM
  relative viability: 0.898
[1]; 0.005 µM
  relative viability: 0.981
[1]; 0.01581 µM
  relative viability: 0.943
[1]; 0.05 µM
  relative viability: 0.962
[1]; 0.1581 µM
  relative viability: 0.988
[1]; 0.5 µM
  relative viability: 0.981
CUDC-101; 0.01 µM
  relative viability: 1.06
CUDC-101; 0.03162 µM
  relative viability: 0.984
CUDC-101; 0.1 µM
  relative viability: 1.09
CUDC-101; 0.3162 µM
  relative viability: 1.1
CUDC-101; 1 µM
  relative viability: 0.951

## NCI-H3122
NVP-TAE684 + Pemetrexed; first compound 0.2 µM
  relative viability: 0.159
NVP-TAE684 + Pemetrexed; first compound 0.6325 µM
  relative viability: 0.117
NVP-TAE684 + Pemetrexed; first compound 2 µM
  relative viability: 0.114
Vandetanib + Vorinostat; first compound 0.02 µM
  relative viability: 0.95
Vandetanib + Vorinostat; first compound 0.06325 µM
  relative viability: 0.965
Vandetanib + Vorinostat; first compound 0.2 µM
  relative viability: 1.08
Vandetanib + Vorinostat; first compound 0.6325 µM
  relative viability: 1.02
Vandetanib + Vorinostat; first compound 2 µM
  relative viability: 0.994
[1]; 0.005 µM
  relative viability: 0.958
[1]; 0.01581 µM
  relative viability: 0.977
[1]; 0.05 µM
  relative viability: 0.98
[1]; 0.1581 µM
  relative viability: 1.03
[1]; 0.5 µM
  relative viability: 0.991
CUDC-101; 0.01 µM
  relative viability: 0.942
CUDC-101; 0.03162 µM
  relative viability: 0.995
CUDC-101; 0.1 µM
  relative viability: 1.03
CUDC-101; 0.3162 µM
  relative viability: 1.01
CUDC-101; 1 µM
  relative viability: 0.994

## PC-3 [JPC-3]
NVP-TAE684 + Pemetrexed; first compound 0.2 µM
  relative viability: 1.16
NVP-TAE684 + Pemetrexed; first compound 0.6325 µM
  relative viability: 1.08
NVP-TAE684 + Pemetrexed; first compound 2 µM
  relative viability: 0.903
Vandetanib + Vorinostat; first compound 0.02 µM
  relative viability: 0.808
Vandetanib + Vorinostat; first compound 0.06325 µM
  relative viability: 0.739
Vandetanib + Vorinostat; first compound 0.2 µM
  relative viability: 0.492
Vandetanib + Vorinostat; first compound 0.6325 µM
  relative viability: 0.449
Vandetanib + Vorinostat; first compound 2 µM
  relative viability: 0.348
[1]; 0.005 µM
  relative viability: 0.85
[1]; 0.01581 µM
  relative viability: 0.966
[1]; 0.05 µM
  relative viability: 1.01
[1]; 0.1581 µM
  relative viability: 1.15
[1]; 0.5 µM
  relative viability: 1.07
CUDC-101; 0.01 µM
  relative viability: 1.05
CUDC-101; 0.03162 µM
  relative viability: 0.972
CUDC-101; 0.1 µM
  relative viability: 0.522
CUDC-101; 0.3162 µM
  relative viability: 0.542
CUDC-101; 1 µM
  relative viability: 0.431

## PC-14
NVP-TAE684 + Pemetrexed; first compound 0.2 µM
  relative viability: 0.145
NVP-TAE684 + Pemetrexed; first compound 0.6325 µM
  relative viability: 0.134
NVP-TAE684 + Pemetrexed; first compound 2 µM
  relative viability: 0.124
Vandetanib + Vorinostat; first compound 0.02 µM
  relative viability: 0.774
Vandetanib + Vorinostat; first compound 0.06325 µM
  relative viability: 0.619
Vandetanib + Vorinostat; first compound 0.2 µM
  relative viability: 0.493
Vandetanib + Vorinostat; first compound 0.6325 µM
  relative viability: 0.107
Vandetanib + Vorinostat; first compound 2 µM
  relative viability: 0.0824
[1]; 0.005 µM
  relative viability: 0.919
[1]; 0.01581 µM
  relative viability: 1.07
[1]; 0.05 µM
  relative viability: 0.95
[1]; 0.1581 µM
  relative viability: 1.15
[1]; 0.5 µM
  relative viability: 0.902
CUDC-101; 0.01 µM
  relative viability: 1.12
CUDC-101; 0.03162 µM
  relative viability: 0.837
CUDC-101; 0.1 µM
  relative viability: 0.602
CUDC-101; 0.3162 µM
  relative viability: 0.537
CUDC-101; 1 µM
  relative viability: 0.273

## RERF-LC-KJ
NVP-TAE684 + Pemetrexed; first compound 0.2 µM
  relative viability: 0.484
NVP-TAE684 + Pemetrexed; first compound 0.6325 µM
  relative viability: 0.489
NVP-TAE684 + Pemetrexed; first compound 2 µM
  relative viability: 0.431
Vandetanib + Vorinostat; first compound 0.02 µM
  relative viability: 0.689
Vandetanib + Vorinostat; first compound 0.06325 µM
  relative viability: 0.607
Vandetanib + Vorinostat; first compound 0.2 µM
  relative viability: 0.724
Vandetanib + Vorinostat; first compound 0.6325 µM
  relative viability: 0.608
Vandetanib + Vorinostat; first compound 2 µM
  relative viability: 0.536
[1]; 0.005 µM
  relative viability: 0.988
[1]; 0.01581 µM
  relative viability: 1.04
[1]; 0.05 µM
  relative viability: 0.953
[1]; 0.1581 µM
  relative viability: 1.07
[1]; 0.5 µM
  relative viability: 0.895
CUDC-101; 0.01 µM
  relative viability: 1
CUDC-101; 0.03162 µM
  relative viability: 1.02
CUDC-101; 0.1 µM
  relative viability: 1.01
CUDC-101; 0.3162 µM
  relative viability: 0.98
CUDC-101; 1 µM
  relative viability: 0.801

## SK-LU-1
NVP-TAE684 + Pemetrexed; first compound 0.2 µM
  relative viability: 0.826
NVP-TAE684 + Pemetrexed; first compound 0.6325 µM
  relative viability: 1
NVP-TAE684 + Pemetrexed; first compound 2 µM
  relative viability: 0.575
Vandetanib + Vorinostat; first compound 0.02 µM
  relative viability: 0.879
Vandetanib + Vorinostat; first compound 0.06325 µM
  relative viability: 0.494
Vandetanib + Vorinostat; first compound 0.2 µM
  relative viability: 0.798
Vandetanib + Vorinostat; first compound 0.6325 µM
  relative viability: 0.918
Vandetanib + Vorinostat; first compound 2 µM
  relative viability: 0.767
[1]; 0.005 µM
  relative viability: 0.783
[1]; 0.01581 µM
  relative viability: 1.21
[1]; 0.05 µM
  relative viability: 1.03
[1]; 0.1581 µM
  relative viability: 1.18
[1]; 0.5 µM
  relative viability: 0.948
CUDC-101; 0.01 µM
  relative viability: 1.19
CUDC-101; 0.03162 µM
  relative viability: 0.988
CUDC-101; 0.1 µM
  relative viability: 1.07
CUDC-101; 0.3162 µM
  relative viability: 0.963
CUDC-101; 1 µM
  relative viability: 0.87

## SK-MES-1
NVP-TAE684 + Pemetrexed; first compound 0.2 µM
  relative viability: 0.999
NVP-TAE684 + Pemetrexed; first compound 0.6325 µM
  relative viability: 0.855
NVP-TAE684 + Pemetrexed; first compound 2 µM
  relative viability: 0.686
Vandetanib + Vorinostat; first compound 0.02 µM
  relative viability: 1.05
Vandetanib + Vorinostat; first compound 0.06325 µM
  relative viability: 0.916
Vandetanib + Vorinostat; first compound 0.2 µM
  relative viability: 1.1
Vandetanib + Vorinostat; first compound 0.6325 µM
  relative viability: 0.949
Vandetanib + Vorinostat; first compound 2 µM
  relative viability: 0.795
[1]; 0.005 µM
  relative viability: 1.05
[1]; 0.01581 µM
  relative viability: 1.02
[1]; 0.05 µM
  relative viability: 0.949
[1]; 0.1581 µM
  relative viability: 1.09
[1]; 0.5 µM
  relative viability: 0.882
CUDC-101; 0.01 µM
  relative viability: 0.968
CUDC-101; 0.03162 µM
  relative viability: 0.984
CUDC-101; 0.1 µM
  relative viability: 0.989
CUDC-101; 0.3162 µM
  relative viability: 0.971
CUDC-101; 1 µM
  relative viability: 0.683

## SW 900
NVP-TAE684 + Pemetrexed; first compound 0.2 µM
  relative viability: 0.548
NVP-TAE684 + Pemetrexed; first compound 0.6325 µM
  relative viability: 0.443
NVP-TAE684 + Pemetrexed; first compound 2 µM
  relative viability: 0.449
Vandetanib + Vorinostat; first compound 0.02 µM
  relative viability: 0.692
Vandetanib + Vorinostat; first compound 0.06325 µM
  relative viability: 0.528
Vandetanib + Vorinostat; first compound 0.6325 µM
  relative viability: 0.425
Vandetanib + Vorinostat; first compound 2 µM
  relative viability: 0.429
[1]; 0.005 µM
  relative viability: 0.899
[1]; 0.01581 µM
  relative viability: 0.845
[1]; 0.05 µM
  relative viability: 0.885
[1]; 0.1581 µM
  relative viability: 1
[1]; 0.5 µM
  relative viability: 0.823
CUDC-101; 0.01 µM
  relative viability: 0.927
CUDC-101; 0.03162 µM
  relative viability: 0.881
CUDC-101; 0.1 µM
  relative viability: 0.803
CUDC-101; 0.3162 µM
  relative viability: 0.878
CUDC-101; 1 µM
  relative viability: 0.624

## SW 1573
NVP-TAE684 + Pemetrexed; first compound 0.2 µM
  relative viability: 0.843
NVP-TAE684 + Pemetrexed; first compound 0.6325 µM
  relative viability: 0.732
NVP-TAE684 + Pemetrexed; first compound 2 µM
  relative viability: 0.396
Vandetanib + Vorinostat; first compound 0.02 µM
  relative viability: 0.635
Vandetanib + Vorinostat; first compound 0.06325 µM
  relative viability: 0.674
Vandetanib + Vorinostat; first compound 0.6325 µM
  relative viability: 0.957
Vandetanib + Vorinostat; first compound 2 µM
  relative viability: 0.751
[1]; 0.005 µM
  relative viability: 0.855
[1]; 0.01581 µM
  relative viability: 1.11
[1]; 0.05 µM
  relative viability: 0.792
[1]; 0.1581 µM
  relative viability: 1.13
[1]; 0.5 µM
  relative viability: 0.978
CUDC-101; 0.01 µM
  relative viability: 1.16
CUDC-101; 0.03162 µM
  relative viability: 0.976
CUDC-101; 0.1 µM
  relative viability: 1.09
CUDC-101; 0.3162 µM
  relative viability: 1.07
CUDC-101; 1 µM
  relative viability: 0.734
